Among the data in patent US4477659A, “Cephalosporin compound” (Asahi Kasei Kogyo Kabushiki Kaisha, priority 1981, dated 1984) are concentration and MIC Value values, retold here.

Data set [1] in a line: Absorption test, oral, rats, solution in buffer pH 7 (Example 16). It is filed as in vivo, Male Wistar rats. Conditions: blood, 50 mg/kg oral, rat, average of 6, read-out: Blood Concentration of the Compound. The protocol: The absorption test of the compounds as obtained in Examples 1-11 were tested by the following method.
Male Wistar rats weighing 180-250 g were fed with only water overnight. The next day the rats were orally administered with 50 mg/kg of a test compound which was dissolved in a buffer solution having pH of 7. The concentration of the compound in blood of the tested animals (one group consisting of 6 animals) was measured 0.5, 1, 2 and 4 hours after the administration by Bioassay method by using Bacillus subtilis ATCC 6633 strain as an indicator bacteria. In the measurement, an ordinary culture medium was employed, and the preparation of the standard solution and other method were carried out in according to Japanese Antibiotical Pharmaceutical Standards. Further, the concentration of the compound in blood was also measured by high performance liquid chromatography. The blood concentration shown below was an average value of each animal group.

The test system of the next data set is E. Coli W3630. Put plainly: MIC (Table 4). Format: cell-based. Conditions: 10^8 cells/ml; unit assumed. The text has this:
(§1) | MIC Value (10^8 cells/ml)

For another data set, the system named is E. Coli NIHJ-JC2. Put plainly: MIC (Table 4). Format: cell-based. Conditions: 10^8 cells/ml; unit assumed.
Text: as §1

Data set [2] relates to Salm enteritidis Gaertner. Put plainly: MIC (Table 4). It is filed as cell-based. The following applies: 10^8 cells/ml; unit assumed.
Text: as §1

The next data set relates to Staph. aureus 0003. Put plainly: MIC (Table 4). The following applies: 10^8 cells/ml; unit assumed. It is filed as cell-based.
Text: as §1

Another data set has as its system E. Coli W3630 ps 3. Put plainly: MIC (Table 4). It is filed as cell-based. The following applies: 10^8 cells/ml; unit assumed.
Text: as §1

The subject of data set [3] is Klebs. pneumoniae ATCC 10031. Put plainly: MIC (Table 4). It is filed as cell-based. Conditions: 10^8 cells/ml; unit assumed.
Text: as §1

Another data set deals with Staph. aureus MS 27. Put plainly: MIC (Table 4). It is filed as cell-based. Conditions: 10^8 cells/ml; unit assumed.
Text: as §1

A further data set deals with Staph. aureus ATCC 6538p. Put plainly: MIC (Table 4). Format: cell-based. The following applies: 10^8 cells/ml; unit assumed.
Text: as §1

Values after ≈ are worked out from the molar mass of the structure shown.

With `CC(=O)OCC1=C(C(=O)O)N2C(=O)[C@@H](NC(=O)CSc3nc(C[C@H](N)C(=O)O)c[nH]3)[C@H]2SC1` [Example 1, 7-β-[4-(2'-amino-2'-carboxy)ethylimidazol-2-yl-thioacetamido]-3-acetoxymethyl-3-cephem-4-carboxylic acid], the concentration at 0.5 h in [1] (0.5 hr.) was 3.6 µg/mL. In addition, the concentration at 1 h in [1] (1 hr.) turned out to be 1.6 µg/mL. In addition, in data set [1] (2 hrs.), the concentration at 2 h came out at 0.8 µg/mL. For the same molecule, the concentration at 4 h in data set [1] (4 hrs.) was 0.5 µg/mL. Also, the MIC Value against E. Coli W3630 is 100 mg/L (≈ 200 µM); against E. Coli NIHJ-JC2, 50 mg/L (≈ 100 µM); in [2] it was 100 mg/L (≈ 200 µM); in the data set with Staph. aureus 0003, 12.5 mg/L (≈ 25 µM); with E. Coli W3630 ps 3 it was 100 mg/L (≈ 200 µM); in [3], 25 mg/L (≈ 50 µM). Also, the MIC Value against Staph. aureus MS 27 amounted to 12.5 mg/L (≈ 25 µM); against Staph. aureus ATCC 6538p, 3.1 mg/L (≈ 6.21 µM).
Consider `Cn1nnnc1SCC1=C(C(=O)O)N2C(=O)[C@@H](NC(=O)CSc3nc(C[C@H](N)C(=O)O)c[nH]3)[C@H]2SC1` [drawing 11], for which the MIC Value was 25 mg/L (≈ 45 µM) in the data set on E. Coli W3630; 25 mg/L (≈ 45 µM) against E. Coli NIHJ-JC2; 12.5 mg/L (≈ 22.5 µM) in data set [2]; 12.5 mg/L (≈ 22.5 µM) in the data set on Staph. aureus 0003; 25 mg/L (≈ 45 µM) against E. Coli W3630 ps 3; 12.5 mg/L (≈ 22.5 µM) in data set [3]. The values for the MIC Value against Staph. aureus MS 27 and against Staph. aureus ATCC 6538p were 12.5 mg/L (≈ 22.5 µM) and 1.6 mg/L (≈ 2.88 µM), respectively.
In the case of `Cc1nnc(SCC2=C(C(=O)O)N3C(=O)[C@@H](NC(=O)CSc4nc(C[C@H](N)C(=O)O)c[nH]4)[C@H]3SC2)s1` [drawing 13], the MIC Value in the data set on E. Coli W3630 was determined as 50 mg/L (≈ 87.5 µM); in the data set with E. Coli NIHJ-JC2, 50 mg/L (≈ 87.5 µM); in data set [2], 50 mg/L (≈ 87.5 µM); with Staph. aureus 0003 it was 25 mg/L (≈ 43.7 µM); with E. Coli W3630 ps 3, 50 mg/L (≈ 87.5 µM); in [3], 25 mg/L (≈ 43.7 µM). The figures for the MIC Value with Staph. aureus MS 27 and in the data set on Staph. aureus ATCC 6538p were 25 mg/L (≈ 43.7 µM) and 1.6 mg/L (≈ 2.8 µM), respectively.
